Where a name gives a salt, the structure may show the parent alone. Numbered stars: 1 amine (or outer) side, 2 acyl side, 3 side chain; on linkers, the order of the positions; unused ones are H or OH. Bridge positions count the residues as written; N and C are the ends. Square brackets hold non-standard residues; d marks the D form. Peptide text beside a SMILES is read from it. * marks the point of attachment. pTerphenylCO(4''-OnC5H11) = CCCCCOc1ccc(-c2ccc(-c3ccc(C(=O)*)cc3)cc2)cc1; Orn(4R-OH,5R-OH) = O=C([C@H](C[C@@H](O)[C@@H](O)N[*:3])N[*:1])[*:2]; hTyr(3S-OH,4S-OH) = N[C@H](C(=O)O)[C@H](O)[C@@H](O)c1ccc(O)cc1; Pro(3S-OH,4S-Me) = C[C@H]1CN[C@H](C(=O)O)[C@H]1O; Hyp = O=C(O)[C@@H]1C[C@@H](O)CN1
Tested on: PRKACA-PRKAR2A interaction (SmBiT-PRKACA / LgBiT-PRKAR2A), protein kinase A
Design: NanoLuc complementation counter-screen in cell extract, PRKACA with PRKAR2A, loss of luminescence, detects NanoLuc interference
Conditions: counter-screen for NanoLuc interference, 0.5 h, 20 µM, inhibitor, Inh (PKA)

Row | Inh (PKA) [%] | SMILES
1 | 1.044 | CCOC(=O)[C@@H](N)CCC(=O)N[C@@H](CSCc1ccccc1)C(=O)N[C@@H](C(=O)OCC)c1ccccc1 [UM0142188:01, Ezatiostat hydrochloride]
2 | 10.44 | CC(=O)Oc1cc2c(s1)CCN(C(C(=O)C1CC1)c1ccccc1F)C2 (centres unmarked) [UM0142193:01, Prasugrel hydrochloride]
3 | 15.97 | C[S+]([O-])c1ccc(-c2nc(-c3ccc(F)cc3)c(-c3ccncc3)[nH]2)cc1 (centres unmarked) [UM0142194:01, SB 203580 hydrochloride]
4 | 38.66 | COc1ccc(S(=O)(=O)N(CCO)c2ccccc2CN(C)C/C=C/c2ccc(Cl)cc2)cc1 [UM0142198:01, KN-93 hydrochloride]
5 | 0.8501 | COc1ccc2[nH]c([S@@+]([O-])Cc3ncc(C)c(OC)c3C)nc2c1 [UM0142233:01, Esomeprazole Sodium]
6 | 2.043 | CCCC(CCC)C(=O)O [UM0142234:01, Divalproex Sodium]
7 | 10.79 | COc1cc2nccc(Oc3ccc(NC(=O)C4(C(=O)Nc5ccc(F)cc5)CC4)cc3)c2cc1OC [UM0142237:01, Cabozantinib malate (XL184)]
8 | 30.14 | CC(C)(C)c1nc(-c2cccc(NS(=O)(=O)c3c(F)cccc3F)c2F)c(-c2ccnc(N)n2)s1 [UM0142241:01, Dabrafenib (GSK2118436)]

Same assay, conditions: counter-screen for NanoLuc interference; 0.5 h, 20 µM; inhibitor

Row | Inh (PKA) [%] | SMILES
9 | 3.047 | N#Cc1cc(-c2n[nH]c(-c3ccncc3)n2)ccn1 [UM0142184:01, Topiroxostat]
10 | -0.993 | CN[C@H](CC(C)C)C(=O)N[C@H]1C(=O)N[C@@H](CC(N)=O)C(=O)N[C@H]2C(=O)N[C@H]3C(=O)N[C@H](C(=O)N[C@H](C(=O)O)c4cc(O)cc(O)c4-c4cc3ccc4O)[C@H](O)c3ccc(c(Cl)c3)Oc3cc2cc(c3O[C@@H]2O[C@H](CO)[C@@H](O)[C@H](O)[C@H]2O[C@H]2C[C@](C)(N)[C@H](O)[C@H](C)O2)Oc2ccc(cc2Cl)[C@H]1O [UM0142186:01, Vancomycin hydrochloride]
11 | 1.846 | c1cc(OCCN2CCCCC2)cc(-c2n[nH]c3ccc(-c4nnc[nH]4)cc23)c1 [UM0142189:01, CC-401]
12 | 65.39 | COc1cc(F)c(F)c(Nc2ccc(I)cc2F)c1NS(=O)(=O)C1(C[C@H](O)CO)CC1 [UM0142191:01, Refametinib]
13 | 0.1491 | CN(C)C(=O)c1ccc(S(=O)(=O)c2ccc(NC(=O)[C@@](C)(O)C(F)(F)F)c(Cl)c2)cc1 [UM0142195:01, AZD7545]
14 | 22.65 | C[C@@H]1CCNC(=O)c2cc3ccc(C(=O)Nc4nc5ccccc5n4CCCN(C)C)cc3n21 [UM0142196:01, BIX 02565]
15 | -0.2342 | COc1cc2ncnc(Sc3nnc(C)s3)c2cc1OC [UM0142197:01, SKLB1002]
16 | 9.933 | O=C1c2ccccc2C(=O)c2oc(-c3cccnc3)nc21 [UM0142199:01, SJB3-019A]
17 | 1.128 | CC(C)(C)NCC(O)c1cc(O)cc(O)c1 (centres unmarked) [UM0142204:01, Terbutaline Sulfate]
18 | 7.349 | CNC[C@H](O)c1ccc(O)c(O)c1 [UM0142209:01, L-Adrenaline]
19 | 1.896 | COCCc1ccc(OCC(O)CNC(C)C)cc1 (centres unmarked) [UM0142210:01, Metoprolol Tartrate]
20 | -0.5821 | CC(C)(C)NCC(O)c1ccc(O)c(CO)c1 (centres unmarked) [UM0142213:01, Salbutamol Sulfate]
21 | -0.4463 | c1ccc2c(c1)CCCC2C1=NCCN1 (centres unmarked) [UM0142214:01, Tetrahydrozoline HCl]
22 | 2.146 | COc1ccc(C[C@@H]2c3cc(OC)c(OC)cc3CC[N@+]2(C)CCC(=O)OCCCCCOC(=O)CC[N@@+]2(C)CCc3cc(OC)c(OC)cc3[C@H]2Cc2ccc(OC)c(OC)c2)cc1OC [UM0142215:01, Cisatracurium Besylate]
23 | 4.249 | Cc1cccc(Cc2c[nH]cn2)c1C [UM0142216:01, Detomidine HCl]
24 | -0.5336 | COc1cc2c(cc1OC)CC(=O)N(CCCN(C)C[C@H]1Cc3cc(OC)c(OC)cc31)CC2 [UM0142218:01, Ivabradine HCl]
25 | 7.933 | Cc1cccc(C(C)c2c[nH]cn2)c1C (centres unmarked) [UM0142219:01, Medetomidine HCl]

Row | Inh (PKA) [%] | SMILES
26 | 1.045 | N=C(N)NC(=N)NCCc1ccccc1 [UM0142225:01, Phenformin HCl]
27 | 29.29 | CCC(=O)Nc1cccc(Oc2nc(Nc3ccc(N4CCN(C)CC4)cc3OC)ncc2Cl)c1 [UM0142226:01, WZ4003]
28 | 5.113 | CC(C)(C#N)c1cc(Cn2cncn2)cc(C(C)(C)C#N)c1 [UM0142230:01, Anastrozole]
29 | 91.42 | CCOC(=O)C1=C(C)NC(C)=C(C(=O)OC)C1c1cccc([N+](=O)[O-])c1 (centres unmarked) [UM0142235:01, Nitrendipine]
30 | 15.4 | Cc1ccc(C(=O)Nc2ccc(CN3CCN(C)CC3)c(C(F)(F)F)c2)cc1C#Cc1cnc2[nH]ncc2c1 [UM0142238:01, GZD824]
31 | 12.64 | CNC(=O)c1cc(Oc2ccc(NC(=O)Nc3cc(C(C)(C)C)nn3-c3ccc4ncccc4c3)c(F)c2)ccn1 [UM0142239:01, DCC-2036 (Rebastinib)]
32 | 70.55 | O=C1Nc2ccc(I)cc2/C1=C/c1cc(Br)c(O)c(Br)c1 [UM0142240:01, GW5074]
33 | 35.77 | CC1=C(C(=O)OC(C)C)C(c2cccc([N+](=O)[O-])c2)C(C(=O)OC2CN(C(c3ccccc3)c3ccccc3)C2)=C(N)N1 (centres unmarked) [UM0142244:01, Azelnidipine]
34 | 81.79 | CCCC(=O)OCOC(=O)C1=C(C)NC(C)=C(C(=O)OC)C1c1cccc(Cl)c1Cl (centres unmarked) [UM0142245:01, Clevidipine Butyrate]
35 | 92.04 | CCOC(=O)C1=C(C)NC(C)=C(C(=O)OC)C1c1cccc(Cl)c1Cl (centres unmarked) [UM0142246:01, Felodipine]
36 | 92.96 | CCOC(=O)C1=C(C)NC(C)=C(C(=O)OCC)C1c1ccccc1/C=C/C(=O)OC(C)(C)C [UM0142247:01, Lacidipine]
37 | -0.8766 | CCCCN1CCCCC1C(=O)Nc1c(C)cccc1C (centres unmarked) [UM0142248:01, Bupivacaine HCl]
38 | 0.7845 | CCCCN1CCCC[C@H]1C(=O)Nc1c(C)cccc1C [UM0142248:02, Levobupivacaine HCl]
39 | 10.23 | CCc1c(C(=O)NCCc2ccc(N3CCCCC3)cc2)[nH]c2ccc(Cl)cc12 [UM0142252:01, Org 27569]
40 | 0.5333 | CCN1/C(=C/C(C)=O)Sc2ccc(OC)cc21 [UM0142254:01, TG003]
41 | 39.56 | Cn1cc(-c2[nH]c3cc(NC(=O)[C@H](N)C4CCCCC4)cc4c3c2C=NNC4=O)cn1 [UM0142256:01, PF-477736]
42 | 54.88 | Nc1nccc(Oc2ccc(NC(=O)c3c[nH]cc(-c4ccc(F)cc4)c3=O)cc2F)c1Cl [UM0142257:01, BMS-794833]

Row | SMILES | Inh (PKA) [%]
43 | CCCCCOc1ccc(-c2ccc(-c3ccc(C(=O)N[C@H]4C[C@@H](O)[C@@H](O)NC(=O)[C@@H]5[C@@H](O)[C@@H](C)CN5C(=O)[C@H]([C@@H](C)O)NC(=O)[C@H]([C@H](O)[C@@H](O)c5ccc(O)cc5)NC(=O)[C@@H]5C[C@@H](O)CN5C(=O)[C@H]([C@@H](C)O)NC4=O)cc3)cc2)cc1 [UM0142187:01, Anidulafungin] ({pTerphenylCO(4''-OnC5H11)}-[Orn(4R-OH,5R-OH)]T[Hyp][hTyr(3S-OH,4S-OH)]T[Pro(3S-OH,4S-Me)]; lactam 1-C) | 1.476
44 | CN1[C@@H]2CC(O)C[C@H]1[C@@H]1O[C@@H]12 (some centres unmarked) [UM0142220:01, Scopine] | 1.123

From paper PMC9995496, “A screen for MeCP2-TBL1 interaction inhibitors using a luminescence-based assay” (Scientific Reports, 2023)
